# Laboratory results from patent US20030157200A1, “Use of oligosaccharides to stimulate beta-endorphin production” (priority 2000, published 2003).
# Tested on: normal human keratinocytes
# Test: Synthesis/secretion of β-endorphin by normal human keratinocytes, assayed by EIA
# Type: cell-based
# Conditions: 24 h; for effect on the production of β-endorphin by normal human keratinocytes (in words): normal human keratinocytes in culture
# Description: Norman human keratinocytes are cultivated to the point of confluence on a 24-well plate and then incubated in a culture medium for 24 hours in the presence of dibutiryl CAMP (2 mM), interleukin-1β (IL-1β) (500 pg/ml) and the test product, i.e. in this case either Tephrosia purpurea extracts according to Example 1, or stachyose, or ciceritol, at the doses indicated in Tables I, II and III respectively.
# Each Tephrosia extract obtained by the process of Example 1 is provided accurately weighed and redissolved at a concentration of 50 mg/ml in an ethanol/water mixture (1/1).
# Antiproteases—aprotinin 5 μg/ml, leupeptin 1 μg/ml and PMSF 1 mM —are added to each well in order to limit the action of the proteases.
# Each experimental point is duplicated.
# After incubation for 24 h, the culture supernatants are recovered and frozen at −80° C.
# Positive stimulation controls are carried out in parallel, the cells being treated for 24 h, as above, with either IL-1β 500 pg/ml or dibutyryl CAMP 2 mM.
# The β-endorphin secreted is assayed by EIA (kit from Peninsula Laboratoiries) and expressed in pg/ml.
# The procedure followed is the same as in the experiments with Tephrosia purpurea extracts except that stachyose and ciceritol are used at the doses indicated in Table II, and the results obtained are indicated in Table II below.
compound,measurement,setting,value
"IL-1β: interleukin-1β, positive stimulation control",β-endorphin secreted,"500 pg/ml, positive control, Table I batch B1 block, Control 3 ± 4",35 ± 5 pg/mL
same,β-endorphin secreted,"500 pg/ml, positive control, Table I batch B2 experiment, Control 3 ± 4",35 ± 5 pg/mL
same,β-endorphin secreted,"500 pg/ml, positive control, Table I batch B3 first series, Control 1 ± 1",17 ± 3 pg/mL
same,β-endorphin secreted,"500 pg/ml, positive control, Table I batch B3 second series, Control 1 ± 3",25 ± 4 pg/mL
same,β-endorphin secreted,"500 pg/ml, positive control, Table II ciceritol first series, Control 1 ± 2",17 ± 3 pg/mL
same,β-endorphin secreted,"500 pg/ml, positive control, Table II ciceritol second series, Control 3 ± 3",35 ± 3 pg/mL
same,β-endorphin secreted,"500 pg/ml, positive control, Table II stachyose experiment, Control 10 ± 3",25 ± 4 pg/mL
same,effect on the production of β-endorphin by normal human keratinocytes (in words),,stimulated the production of β-endorphin
"CO[C@H]1[C@H](O)[C@@H](O[C@H]2O[C@H](CO[C@H]3O[C@H](CO)[C@H](O)[C@H](O)[C@H]3O)[C@H](O)[C@H](O)[C@H]2O)[C@@H](O)[C@H](O)[C@@H]1O [Ciceritol, O-α-D-galactopyranosyl-[1→6]-O-α-D-galactopyranosyl-[1→2]-4-O-methyl-D-chiroinositol]",β-endorphin secreted,"20 ng/ml, Table II ciceritol first series, Control 1 ± 2",8 ± 3 pg/mL
same,β-endorphin secreted,"64 ng/ml, Table II ciceritol second series, Control 3 ± 3",44 ± 7 pg/mL
same,β-endorphin secreted,"100 ng/ml, Table II ciceritol first series, Control 1 ± 2",8 ± 4 pg/mL
same,β-endorphin secreted,"500 ng/ml, Table II ciceritol first series, Control 1 ± 2",9 ± 5 pg/mL
same,effect on the production of β-endorphin by normal human keratinocytes (in words),,stimulating effect
"OC[C@H]1O[C@H](OC[C@H]2O[C@H](OC[C@H]3O[C@H](O[C@]4(CO)O[C@H](CO)[C@@H](O)[C@@H]4O)[C@H](O)[C@@H](O)[C@@H]3O)[C@H](O)[C@@H](O)[C@H]2O)[C@H](O)[C@@H](O)[C@H]1O [Stachyose, O-α-D-galactopyranosyl-[1→6]-O-α-D-galactopyranosyl-[1→6]-β-D-fructofuranosyl-α-D-glucopyranoside]",β-endorphin secreted,"20 ng/ml, Table II stachyose experiment, Control 10 ± 3",16 ± 1 pg/mL
same,β-endorphin secreted,"100 ng/ml, Table II stachyose experiment, Control 10 ± 3",22 ± 2 pg/mL
same,β-endorphin secreted,"500 ng/ml, Table II stachyose experiment, Control 10 ± 3",30 ± 13 pg/mL
same,effect on the production of β-endorphin by normal human keratinocytes (in words),,stimulating effect
CCCC(=O)Nc1ncnc2c1ncn2[C@@H]1O[C@@H]2COP(=O)(O)O[C@H]2[C@H]1OC(=O)CCC [dibutyryl cAMP],β-endorphin secreted,"2 mM, positive control, Table I batch B1 block, Control 3 ± 4",87 ± 12 pg/mL
same,β-endorphin secreted,"2 mM, positive control, Table I batch B2 experiment, Control 3 ± 4",87 ± 12 pg/mL
same,β-endorphin secreted,"2 mM, positive control, Table I batch B3 first series, Control 1 ± 1",10 ± 1 pg/mL
same,β-endorphin secreted,"2 mM, positive control, Table I batch B3 second series, Control 1 ± 3",22 ± 1 pg/mL
same,β-endorphin secreted,"2 mM, positive control, Table II ciceritol first series, Control 1 ± 2",10 ± 1 pg/mL
same,β-endorphin secreted,"2 mM, positive control, Table II ciceritol second series, Control 3 ± 3",87 ± 8 pg/mL
same,β-endorphin secreted,"2 mM, positive control, Table II stachyose experiment, Control 10 ± 3",22 ± 1 pg/mL
same,effect on the production of β-endorphin by normal human keratinocytes (in words),,stimulated the production of β-endorphin
